Test results as given in patent US10287297B2, “Epoxyazulene derivatives useful for treating cancer and diabetes” (The United States of America, as represented by the …, priority 2015, dated 2019).

Key:
Format in all cases: cell-based
MOLT-4 = test: NCI 60 cell assay, leukemia MOLT-4; conditions: Homo sapiens, 48 h; MOLT-4 (leukemia); drug exposure two days, SRB endpoint; read-out: GI-50 value
Experimental: (§1) Samples were tested in the standard National Cancer Institute 60-cell line protocol. First, they were tested against all 60 cell lines in a single final concentration of 10 micromolar. Then, they were separately tested in five 10-fold dilutions. The drug exposure was two days, with an SRB endpoint.

SR = test: NCI 60 cell assay, leukemia SR; conditions: Homo sapiens, 48 h, drug exposure two days, SRB endpoint, read-out: GI-50 value
Experimental: as §1

A549/ATCC = test: NCI 60 cell assay, NSCLC A549/ATCC; conditions: Homo sapiens, 48 h, drug exposure two days, SRB endpoint, read-out: GI-50 value
Experimental: as §1

NCI-H23 = test: NCI 60 cell assay, NSCLC NCI-H23; conditions: Homo sapiens, 48 h, drug exposure two days, SRB endpoint, read-out: GI-50 value
Experimental: as §1

NCI-H460 = test: NCI 60 cell assay, NSCLC NCI-H460; conditions: Homo sapiens, 48 h, drug exposure two days, SRB endpoint, read-out: GI-50 value
Experimental: as §1

NCI-H522 = test: NCI 60 cell assay, NSCLC NCI-H522; conditions: Homo sapiens, 48 h, drug exposure two days, SRB endpoint, read-out: GI-50 value
Experimental: as §1

COLO 205 = test: NCI 60 cell assay, colon COLO 205; conditions: Homo sapiens, 48 h; COLO 205 (colon); drug exposure two days, SRB endpoint; read-out: GI-50 value
Experimental: as §1

HCC-2998 = test: NCI 60 cell assay, colon HCC-2998; conditions: Homo sapiens, 48 h; HCC-2998 (colon); drug exposure two days, SRB endpoint; read-out: GI-50 value
Experimental: as §1

HT29 = test: NCI 60 cell assay, colon HT29; conditions: Homo sapiens, HT-29, 48 h, drug exposure two days, SRB endpoint, read-out: GI-50 value
Experimental: as §1

SF-268 = test: NCI 60 cell assay, CNS SF-268; conditions: Homo sapiens, 48 h; SF-268 (CNS); drug exposure two days, SRB endpoint; read-out: GI-50 value
Experimental: as §1

SF-295 = test: NCI 60 cell assay, CNS SF-295; conditions: Homo sapiens, 48 h; SF-295 (CNS); drug exposure two days, SRB endpoint; read-out: GI-50 value
Experimental: as §1

SF-539 = test: NCI 60 cell assay, CNS SF-539; conditions: Homo sapiens, 48 h; SF-539 (CNS); drug exposure two days, SRB endpoint; read-out: GI-50 value
Experimental: as §1

U251 = test: NCI 60 cell assay, CNS U251; conditions: Homo sapiens, U-251, 48 h, drug exposure two days, SRB endpoint, read-out: GI-50 value
Experimental: as §1

MALME-3M = test: NCI 60 cell assay, melanoma MALME-3M; conditions: Homo sapiens, 48 h; MALME-3M (melanoma); drug exposure two days, SRB endpoint; read-out: GI-50 value
Experimental: as §1

MDA-MB-435 = test: NCI 60 cell assay, melanoma MDA-MB-435; conditions: Homo sapiens, 48 h; MDA-MB-435 (melanoma); drug exposure two days, SRB endpoint; read-out: GI-50 value
Experimental: as §1

SK-MEL-28 = test: NCI 60 cell assay, melanoma SK-MEL-28; conditions: Homo sapiens, 48 h; SK-MEL-28 (melanoma); drug exposure two days, SRB endpoint; read-out: GI-50 value
Experimental: as §1

SK-MEL-5 = test: NCI 60 cell assay, melanoma SK-MEL-5; conditions: Homo sapiens, 48 h; SK-MEL-5 (melanoma); drug exposure two days, SRB endpoint; read-out: GI-50 value
Experimental: as §1

UACC-257 = test: NCI 60 cell assay, melanoma UACC-257; conditions: Homo sapiens, 48 h; UACC-257 (melanoma); drug exposure two days, SRB endpoint; read-out: GI-50 value
Experimental: as §1

UACC-62 = test: NCI 60 cell assay, melanoma UACC-62; conditions: Homo sapiens, 48 h; UACC-62 (melanoma); drug exposure two days, SRB endpoint; read-out: GI-50 value
Experimental: as §1

IGROV1 = test: NCI 60 cell assay, ovarian IGROV1; conditions: Homo sapiens, IGROV-1, 48 h, drug exposure two days, SRB endpoint, read-out: GI-50 value
Experimental: as §1

OVCAR-4 = test: NCI 60 cell assay, ovarian OVCAR-4; conditions: Homo sapiens, 48 h; OVCAR-4 (ovarian); drug exposure two days, SRB endpoint; read-out: GI-50 value
Experimental: as §1

OVCAR-5 = test: NCI 60 cell assay, ovarian OVCAR-5; conditions: Homo sapiens, 48 h; OVCAR-5 (ovarian); drug exposure two days, SRB endpoint; read-out: GI-50 value
Experimental: as §1

NCI/ADR-RES = test: NCI 60 cell assay, ovarian NCI/ADR-RES; conditions: Homo sapiens, 48 h, drug exposure two days, SRB endpoint, read-out: GI-50 value
Experimental: as §1

SK-OV-3 = test: NCI 60 cell assay, ovarian SK-OV-3; conditions: Homo sapiens, 48 h; SK-OV-3 (ovarian); drug exposure two days, SRB endpoint; read-out: GI-50 value
Experimental: as §1

A498 = test: NCI 60 cell assay, renal A498; conditions: Homo sapiens, 48 h, drug exposure two days, SRB endpoint, read-out: GI-50 value
Experimental: as §1

ACHN = test: NCI 60 cell assay, renal ACHN; conditions: Homo sapiens, 48 h, drug exposure two days, SRB endpoint, read-out: GI-50 value
Experimental: as §1

CAKI-1 = test: NCI 60 cell assay, renal CAKI-1; conditions: Homo sapiens, 48 h; CAKI-1 (renal); drug exposure two days, SRB endpoint; read-out: GI-50 value
Experimental: as §1

TK-10 = test: NCI 60 cell assay, renal TK-10; conditions: Homo sapiens, 48 h; TK-10 (renal); drug exposure two days, SRB endpoint; read-out: GI-50 value
Experimental: as §1

HS 578T = test: NCI 60 cell assay, breast HS 578T; conditions: Homo sapiens, 48 h; HS 578T (breast); drug exposure two days, SRB endpoint; read-out: GI-50 value
Experimental: as §1

BT-549 = test: NCI 60 cell assay, breast BT-549; conditions: Homo sapiens, 48 h; BT-549 (breast); drug exposure two days, SRB endpoint; read-out: GI-50 value
Experimental: as §1

T-47D = test: NCI 60 cell assay, breast T-47D; conditions: Homo sapiens, T47D, 48 h; T-47D (breast); drug exposure two days, SRB endpoint; read-out: GI-50 value
Experimental: as §1

MDA-MB-468 = test: NCI 60 cell assay, breast MDA-MB-468; conditions: Homo sapiens, 48 h; MDA-MB-468 (breast); drug exposure two days, SRB endpoint; read-out: GI-50 value
Experimental: as §1

Work on `CC1=C2[C@@H](CC1)[C@]1(C)O[C@@](C3CC3)(C[C@H]1OC(=O)CO)[C@H]2OC(=O)C=Cc1ccccc1` [Compound (Is), (3aR,4S,5R,7R,8S)-7-cyclopropyl-5-(2-hydroxyacetoxy)-1,4-dimethyl-2,3,3a,4,5,6,7,8-octahydro-4,7-epoxyazulen-8-yl cinnamate] yielded a GI50 (MOLT-4) of 16 µM, a GI50 (SR) of 17 µM and a GI50 (A549/ATCC) of 14 µM. The GI50 (NCI-H23) was 17 µM, the GI50 (NCI-H460) was 18 µM and the GI50 (NCI-H522) was 17 µM. For the same compound, the GI50 (COLO 205) was 19 µM, the GI50 (HCC-2998) was 17 µM and the GI50 (HT29) was 17 µM. The GI50 (SF-268) was 1.6 µM, the GI50 (SF-295) was 17 µM and the GI50 (SF-539) was 17 µM. For the same compound, the GI50 (U251) was 15 µM, the GI50 (MALME-3M) was 16 µM and the GI50 (MDA-MB-435) was 17 µM. For the same compound, the GI50 (SK-MEL-28) was 18 µM, the GI50 (SK-MEL-5) was 18 µM and the GI50 (UACC-257) was 16 µM. It also gave a GI50 (UACC-62) of 15 µM, a GI50 (IGROV1) of 19 µM and a GI50 (OVCAR-4) of 15 µM. For the same compound, the GI50 (OVCAR-5) was 17 µM, the GI50 (NCI/ADR-RES) was 0.071 µM and the GI50 (SK-OV-3) was 16 µM. The GI50 (A498) was 0.11 µM, the GI50 (ACHN) was 0.028 µM and the GI50 (CAKI-1) was 11 µM. The GI50 (TK-10) was 19 µM, the GI50 (HS 578T) was 0.023 µM and the GI50 (BT-549) was 0.21 µM. For the same compound, the GI50 (T-47D) was 14 µM and the GI50 (MDA-MB-468) was 15 µM.

In the case of `CC1=C2[C@@H](CC1)[C@]1(C)O[C@@](C(C)C)(C[C@H]1OC(=O)[C@H](C)O)[C@H]2OC(=O)C=Cc1ccccc1` [(Il), (3aR,4S,5R,7R,8S)-5-(((S)-2-hydroxypropanoyl)oxy)-7-isopropyl-1,4-dimethyl-2,3,3a,4,5,6,7,8-octahydro-4,7-epoxyazulen-8-yl cinnamate], the GI50 (MOLT-4) is reported as 10 µM, the GI50 (SR) is reported as 13 µM and the GI50 (A549/ATCC) is reported as 13 µM. It also gave a GI50 (NCI-H23) of 14 µM, a GI50 (NCI-H460) of 15 µM and a GI50 (NCI-H522) of 13 µM. The GI50 (COLO 205) was 17 µM, the GI50 (HCC-2998) was 14 µM and the GI50 (HT29) was 14 µM. For the same compound, the GI50 (SF-268) was 1.3 µM, the GI50 (SF-295) was 11 µM and the GI50 (SF-539) was 15 µM. The GI50 (U251) was 14 µM, the GI50 (MALME-3M) was 15 µM and the GI50 (MDA-MB-435) was 15 µM. For the same compound, the GI50 (SK-MEL-28) was 16 µM, the GI50 (SK-MEL-5) was 13 µM and the GI50 (UACC-257) was 15 µM. It also gave a GI50 (UACC-62) of 13 µM, a GI50 (IGROV1) of 19 µM and a GI50 (OVCAR-4) of 12 µM. It also gave a GI50 (OVCAR-5) of 18 µM, a GI50 (NCI/ADR-RES) of 0.42 µM and a GI50 (SK-OV-3) of 15 µM. It also gave a GI50 (A498) of 0.21 µM, a GI50 (ACHN) of 0.09 µM and a GI50 (CAKI-1) of 7.2 µM. The GI50 (TK-10) was 17 µM, the GI50 (HS 578T) was 0.098 µM and the GI50 (BT-549) was 1.4 µM. The GI50 (T-47D) was 7.2 µM and the GI50 (MDA-MB-468) was 11 µM.

`CC1=C2[C@@H](CC1)[C@]1(C)O[C@@](C3CCCCC3)(C[C@H]1OC(=O)CO)[C@H]2OC(=O)C=Cc1ccccc1` [(Iq), (3aR,4S,5R,7R,8S)-7-cyclohexyl-5-(2-hydroxyacetoxy)-1,4-dimethyl-2,3,3a,4,5,6,7,8-octahydro-4,7-epoxyazulen-8-yl cinnamate] showed a GI50 (MOLT-4) of 12 µM, a GI50 (SR) of 9 µM and a GI50 (A549/ATCC) of 11 µM. The GI50 (NCI-H23) was 14 µM, the GI50 (NCI-H460) was 13 µM and the GI50 (NCI-H522) was 15 µM. For the same compound, the GI50 (COLO 205) was 15 µM, the GI50 (HCC-2998) was 13 µM and the GI50 (HT29) was 12 µM. The GI50 (SF-268) was 0.7 µM, the GI50 (SF-295) was 12 µM and the GI50 (SF-539) was 17 µM. The GI50 (U251) was 13 µM, the GI50 (MALME-3M) was 17 µM and the GI50 (MDA-MB-435) was 15 µM. For the same compound, the GI50 (SK-MEL-28) was 17 µM, the GI50 (SK-MEL-5) was 14 µM and the GI50 (UACC-257) was 14 µM. It also gave a GI50 (UACC-62) of 15 µM, a GI50 (IGROV1) of 19 µM and a GI50 (OVCAR-4) of 15 µM. The GI50 (OVCAR-5) was 19 µM, the GI50 (NCI/ADR-RES) was 0.25 µM and the GI50 (SK-OV-3) was 13 µM. It also gave a GI50 (A498) of 0.021 µM, a GI50 (ACHN) of 0.035 µM and a GI50 (CAKI-1) of 10 µM. It also gave a GI50 (TK-10) of 17 µM, a GI50 (HS 578T) of 0.03 µM and a GI50 (BT-549) of 0.5 µM. It also gave a GI50 (T-47D) of 9.1 µM and a GI50 (MDA-MB-468) of 12 µM.
